Results as given in US4994473A, “Pyridyl containing insecticides” (ICI Americas Inc., priority 1988, dated 1991).

Experiments:
Musca domestica = assay: Housefly contact test, mortality after 48 hours; type: in vivo, Housefly Musca domestica; details: μg of the test compound per 25 female flies
Method: (§1) The compounds in Table I above were tested for insecticidal activity using the following testing procedures. LC50 values, based on the results of these tests and calculated according to dosage-mortality curves, are expressed in Table II.
The test compound was diluted in acetone and aliquots pipetted onto the bottom of aluminum dishes. To ensure even spreading of the chemical on the bottom of the dishes, 1 ml of acetone containing 0.01% peanut oil was also added to each dish. After all solvents had evaporated, the dishes were placed in circular cardboard cages containing 25 female houseflies, 1-2 days old. The cages were covered on the bottom with cellophane and on the top with tulle netting, and each contained a sugar-water saturated cotton plug for maintenance of the flies. Mortality was recorded after 48 hours. Test levels ranged from 100 μg/25 female houseflies downward. The LC-50 value is expressed below in Table II under the heading "HF", in terms of μg of the test compound per 25 female flies.

Aphis fabae = assay: Black bean aphid spray test on nasturtium plants, mortality after 48 hours; type: in vivo, Black Bean Aphid Aphis fabae (Scop.); details: mixed ages, percent of test compound in sprayed solution
Method: as §1
Black Bean Aphid Aphis fabae (Scop.)
Nasturtium plants (Tropaeolum sp.) approximately 5 cm tall, were transplanted into sandy loam soil in small cups and infested with 25-50 black bean aphids of mixed ages. Twenty-four hours later they were sprayed to the point of runoff with 50--50 acetone-water solutions of the test compound. Treated plants were held in the greenhouse and mortality was recorded after 48 hours. Test concentrations ranged from 0.05% downward. The LC-50 value is expressed below in Table II under the heading "BA" in terms of percent of the test compound in the sprayed solution.

Tetranychus urticae = assay: Two-spotted mite acaricidal test on pinto bean plants; type: in vivo, two-spotted mite Tetranychus urticae (Koch); details: percent concentration in solution, 5-7 days; for LC50 2-SM A: adults; for LC50 2-SM E: eggs
From the text: Acaricidal Evaluation Test
The two-spotted mite (2SM) [Tetranychus urticae (Koch)]was employed in tests for miticides. The test procedure was as follows:
Pinto bean plants (Phaseolus sp.) approximately 10 cm tall, were transplanted into sandy loam soil in small cups and thoroughly infested with two-spotted mites of mixed ages and sexes. Twenty-four hours later the infested plants were inverted and dipped for 2-3 seconds in 50--50 acetone-water solutions of the test compound. Treated plants were held in the greenhouse, and 5-7 days later mortality was determined for both adult mites and the nymphs hatching from eggs which were on the plants at the time of treatment. Test concentrations ranged from 0.05% downward. The LC-50 value is expressed below in Table II under the headings "2SM-A" (i.e., adults) and "2SM-E" (i.e. eggs) in terms of percent concentration of the test compound in the solution.

Heliothis virescens = assay: Tobacco budworm egg dip test; type: in vivo, Tobacco Budworm Heliothis virescens (Fabricius); details: 2-day old eggs (TBW-E), percent of test compound in solution
Method: as §1
Tobacco Budworm Heliothis virescens (Fabricius)
Eggs: Paper towel patches of 2-day old eggs of the tobacco budworm were dipped in acetone solutions of the test compound and placed in petri dishes containing a portion of larval rearing medium. Treated eggs were maintained at 78° F. and mortality was recorded after all control eggs had hatched and the young larvae were feeding on the media. Test concentrations ranged from 0.1% downward. The LC-50 value is expressed below in Table II under the heading "TBW-E" in terms of percent of the test compound in the solution.

Trichoplusia ni = assay: Cabbage looper larvae leaf-dip test; type: in vivo, Cabbage Looper Trichoplusia ni (Hubner); details: second instar larvae, percent of test compound in solution, 3-5 days
Method: as §1
Cabbage Looper Trichoplusia ni (Hubner)
The test compound was diluted in a 50--50 acetone-water solution Cotyledons of hyzini squash (Calabacita abobrinha), approximately 1×1.5 inches, were immersed in the test solutions for 2-3 seconds and placed on a wire screen to dry. The dried leaves were p1aced in petri dishes containing a moistened piece of filter paper and infested with 5 secondinstar cabbage looper larvae. The dishes were placed in a high humidity chamber. Mortality of the larvae was recorded 3-5 days later. Test concentrations ranged from 0.1% downward. The LC-50 value is expressed below in Table II under the heading "CL" in terms of percent of the test compound in solution.

[1] = test system: Diabrotica undecimpunctata undecimpunctata; assay: Western spotted cucumber beetle larvae soil test; type: in vivo; details: Diabrotica eggs/larvae; ppm of the test compound in the soil
Method: as §1
Western Spotted Cucumber Beetle Larvae Diabrotica undecimpunctata undecimpunctata (Mannherheim)
Ten grams of moist potting soil was placed in a plastic cup. The test compound was dissolved in acetone. A 0.05 ml aliquot of the test sample, diluted to the desired concentration, was added to the soil. The cup was capped and the soil was mixed on a vortex mixer for approximately 15 seconds. An indentation was made on the surface of the soil and approximately 50 Diabrotica eggs were added. The eggs were covered with soil and maintained at room temperature (approximately 70° F. or 21° C.). Four days later a section of Romaine lettuce (Latuca sativa) leaf was placed in the treated cups. One week later the cups were examined for live larvae. Test concentrations ranged from 25 ppm downward. The LC-50 value is expressed below in Table II under the heading "Diabrotica" in terms of ppm of the test compound in the soil.

Row | Structure (SMILES) | LC50 HF (Musca domestica) [µg] | LC50 BA (Aphis fabae) [%] | LC50 2-SM A (Tetranychus urticae) [%] | LC50 2-SM E (Tetranychus urticae) [%] | LC50 TBW (Heliothis virescens) [%] | LC50 CL (Trichoplusia ni) [%] | LC50 Diabrotica [1] [ppm]
1 | CC(C)C(=Nc1cncc(C(F)(F)F)c1)OCc1cccc(Oc2ccccc2)c1 [Compound 33] | 5 | > 0.05 | > 0.05 | > 0.05 | 0.075 | 0.0035 | > 25
2 | CC(C)C(=Nc1cncc(C(F)(F)F)c1)OCc1ccc(F)c(Oc2ccc(Cl)cc2)c1 [Compound 37] | 40 | > 0.05 | > 0.05 | > 0.05 | > 0.1 | > 0.1 | > 25
3 | CSc1ccc(N=C(OCc2cccc(Oc3ccccc3)c2)C(C)C)cn1 [Compound 38] | < 100 | 0.005 | > 0.05 | > 0.05 | > 0.1 | > 0.1 | > 25
4 | CC(C)C(=Nc1ccc(OCC(F)(F)F)nc1)OCc1cccc(Oc2ccc(Cl)cc2)c1 [Compound 39] | > 100 | 0.001 | 0.006 | 0.006 | 0.02 | > 0.1 | > 25
5 | CC(C)C(=Nc1ccc(OCC(F)(F)F)nc1)OCc1cccc(Oc2ccccc2)c1 [Compound 40] | < 100 | 0.0003 | 0.006 | 0.006 | 0.045 | 0.00029 | > 25
6 | CC(C)C(=Nc1ccc(OCC(F)(F)F)nc1)OCc1ccc(F)c(Oc2ccccc2)c1 [Compound 42] | < 100 | 0.0004 | 0.006 | 0.006 | 0.017 | 0.000075 | > 25
7 | CC(C)C(=Nc1ccc(OCC(F)(F)F)nc1)OCc1cccc(Oc2ccc(F)cc2)c1 [Compound 43] | > 100 | 0.0003 | 0.006 | 0.006 | 0.02 | 0.00015 | > 25
8 | CC(C)C(=Nc1ccc(OCC(F)(F)F)nc1)OCc1ccc(F)c(Oc2ccc(Cl)cc2)c1 [Compound 44] | > 100 | 0.0003 | 0.001 | 0.001 | 0.01 | 0.00017 | > 25
9 | CC(C)C(=Nc1ccc(OCC(F)(F)F)nc1)OCc1cccc(Oc2ccccc2)n1 [Compound 45] | < 100 | 0.001 | 0.03 | 0.03 | > 0.1 | 0.00075 | > 25
10 | CC(C)C(=Nc1ccc(OCC(F)(F)F)nc1)OCc1cccc(Oc2ccc(Cl)cc2)n1 [Compound 46] | < 100 | 0.0003 | 0.006 | 0.006 | 0.017 | 0.00027 | > 25
11 | C=C(C)C(=Nc1ccc(Cl)nc1)OCc1cccc(Oc2ccccc2)c1 [Compound 47] | < 100 | 0.05 | > 0.05 | > 0.05 | < 0.1 | < 0.1 | > 25
12 | C=C(C)C(=Nc1ccc(Cl)nc1)OCc1ccc(F)c(Oc2ccc(Cl)cc2)c1 [Compound 48] | < 100 | < 0.05 | > 0.05 | > 0.05 | < 0.1 | < 0.1 | > 25
13 | C=C(C)C(=Nc1ccc(Cl)nc1)OCc1ccc(F)c(Oc2ccccc2)c1 [Compound 49] | < 100 | < 0.05 | > 0.05 | > 0.05 | 0.1 | < 0.1 | > 25
